# Source: patent EP2931723B1, “NEW BICYCLIC COMPOUNDS AND THEIR USE AS ANTIBACTERIAL AGENTS AND -LACTAMASE INHIBITORS” (Fedora Pharmaceuticals Inc., priority 2012, dated 2014)
# How the values were obtained:
# Experiment in all cases: MIC, antibacterial and synergistic activity
# Assay type in all cases: cell-based
# [1] = tested on: E. cloacae JMI 36; conditions: E. cloacae JMI 36 (P99)
# [2] = tested on: E. coli JMI 10767; conditions: E. coli JMI 10767 (Wt)
# [3] = tested on: E. coli JMI 10770; conditions: Escherichia coli, JMI10770; E. coli JMI 10770 (CTX-M15 (Hyper ESBL)); substance alone
# [4] = tested on: E.coli JMI 4103; conditions: E.coli JMI 4103 (KPC-2, Tem-1, CMY-Type)
# [5] = tested on: E. coli ATCC 25922; conditions: E. coli ATCC 25922 (Wt)
# [6] = tested on: K. pneumo JMI 2693; conditions: K. pneumo JMI 2693 (NDM-1 (Cpase))
# Method: (§1) In the Tables 10 - 12, compounds herein disclosed were tested in combination with various antibiotics against metallo β-lactamase producing bacteria.
# [7] = tested on: E. coli JMI 2692; conditions: E. coli JMI 2692 (NDM-1, TEM-1, CTX-M-15)
# Method: as §1
# [8] = tested on: K. pneumo JMI 2681; conditions: K. pneumo JMI 2681 (Oxa-48 (Cpase))
# [9] = tested on: K. pneumo JMI 2673; conditions: K. pneumo JMI 2673 (CTX-M14 (ESBL)); substance alone
# [10] = tested on: K. pneumo JMI 2699; conditions: K. pneumo JMI 2699 (VIM-1, CTX-M3)
# Summary of the method: (§2)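 MICs were measured for antibiotics combined with the test inhibitor, held at a fixed 4 µg/mL, against metallo β-lactamase-producing clinical isolates.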
# [11] = tested on: E. coli JMI 10767; conditions: E. coli JMI 10767 (Wt); remark: listed apart in the source
# Method: (§3) In the Tables 10 - 12, compounds herein disclosed were tested in combination with various antibiotics against metallo β-lactamase producing bacteria. Table 3: Synergy of the inhibitor Ex. 1 (4 µg/mL) in combination with antibiotics
# [12] = tested on: K.pneumo JMI 4109; conditions: K.pneumo JMI 4109 (SHV-1, SHV-12)
# Summary of the method: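 Antibacterial synergy was assessed by pairing each inhibitor compound, at a constant concentration of 4 µg/mL, with β-lactam antibiotics. The combinations were run against bacterial strains that produce β-lactamases, and the readout was the minimum inhibitory concentration of the antibiotic in the presence of the inhibitor.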
# [13] = tested on: E. coli JMI 2671
# Summary of the method: as §2
# [14] = tested on: E. coli JMI 2665
# Method: as §3
# [15] = tested on: K. pneumo JMI 4088; conditions: K. pneumo JMI 4088 (KPC-3 (Cpase))
# Summary of the method: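 The compound was tested for synergy by combining it with antibiotics and measuring minimum inhibitory concentrations against β-lactamase producing bacteria. The inhibitor was present at a fixed concentration of 4 µg/mL together with the partner antibiotic, and MIC values were recorded.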
# [16] = tested on: K. pneumo JMI 2674; conditions: K. pneumo JMI 2674 (CTX-M15 (ESBL))
# Summary of the method: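 Antibacterial activity was assessed as minimum inhibitory concentrations against a β-lactamase-producing bacterial strain. Each test inhibitor was combined with an antibiotic, with the inhibitor held at a fixed 4 µg/mL, to determine whether it acted synergistically and restored the antibiotic's effect against the resistant organism.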
# [17] = tested on: P. aerug JMI 2686; conditions: P. aerug JMI 2686 (KPC-2 (Cpase))
# Summary of the method: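 This antibacterial synergy assay measured the minimum inhibitory concentration of antibiotics combined with the disclosed inhibitor compounds. The inhibitor was held at 4 µg/mL throughout. The aim was to see whether the added compound strengthened the antibiotic's action against the tested bacteria.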
# [18] = tested on: K. pneumo JMI 2673; conditions: K. pneumo JMI 2673 (CTX-M14 (ESBL))
# Summary of the method: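 Antibacterial synergy was assessed by testing a β-lactamase inhibitor compound in combination with antibiotics. The inhibitor was held at a fixed concentration of 4 µg/mL, and the minimum inhibitory concentration of the partner antibiotic was determined in its presence.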
# [19] = tested on: E. coli JMI 10770; conditions: E. coli JMI 10770 (CTX-M15 (Hyper ESBL))
# Method: as §3
# [20] = tested on: E. coli JMI 10768; conditions: E. coli JMI 10768 (CTX-M15 (Weak ESBL))
# Method: as §3
# [21] = tested on: K.pneumo JMI 4109; conditions: K.pneumo JMI 4109 (SHV-1, SHV-12); substance alone
# [22] = tested on: K. pneumo JMI 2674; conditions: K. pneumo JMI 2674 (CTX-M15 (ESBL)); substance alone
# [23] = Aztreonam + inhibitor at 4 µg/mL
# [24] = Ceftazidime + inhibitor at 4 µg/mL
# [25] = Meropenem + inhibitor at 4 µg/mL
smiles,measurement,setting,value
"CCC(=O)NNC(=O)[C@@H]1CC[C@@H]2CN1C(=O)N2OS(=O)(=O)O [Ex. 8, (2S,5R)-7-oxo-N'-propanoyl-6-(sulfooxy)-1,6-diazabicyclo[3.2.1]octane-2-carbohydrazide]",MIC Aztreonam + inhibitor,[1]; [23],0.125 µg/mL
same,MIC Ceftazidime + inhibitor,[1]; [24],0.5 µg/mL
same,MIC Meropenem + inhibitor,[1]; [25],0.25 µg/mL
same,MIC,"[1]; Enterobacter cloacae, JMI36, substance alone, read-out: MIC",> 16 µg/mL
same,MIC Meropenem + inhibitor,[2]; [25],≤0.0312 µg/mL
same,MIC,"[2]; Escherichia coli, JMI10767, substance alone",> 16 µg/mL
same,MIC,[3],> 16 µg/mL
same,MIC Aztreonam + inhibitor,[4]; [23],≤0.062 µg/mL
same,MIC Ceftazidime + inhibitor,[4]; [24],≤0.25 µg/mL
same,MIC Meropenem + inhibitor,[4]; [25],≤0.0312 µg/mL
same,MIC,"[4]; Escherichia coli, JMI4103, substance alone",4 µg/mL
same,MIC Aztreonam + inhibitor,[5]; [23],≤0.0625 µg/mL
same,MIC Ceftazidime + inhibitor,[5]; [24],≤0.25 µg/mL
same,MIC Meropenem + inhibitor,[5]; [25],≤0.0312 µg/mL
same,MIC,"[5]; Escherichia coli, ATCC25922, substance alone",16 µg/mL
same,MIC Aztreonam + inhibitor,[6]; [23],2 µg/mL
same,MIC Ceftazidime + inhibitor,[6]; [24],8 µg/mL
same,MIC Meropenem + inhibitor,[6]; [25],0.125 µg/mL
same,MIC,[6]; substance alone,> 16 µg/mL
same,MIC Aztreonam + inhibitor,[7]; [23],≤0.062 µg/mL
same,MIC Ceftazidime + inhibitor,[7]; [24],≤0.25 µg/mL
same,MIC Meropenem + inhibitor,[7]; [25],2 µg/mL
same,MIC,"[7]; Escherichia coli, JMI2692, substance alone, read-out: MIC",4 µg/mL
same,MIC Aztreonam + inhibitor,[8]; [23],0.125 µg/mL
same,MIC Ceftazidime + inhibitor,[8]; [24],≤0.25 µg/mL
same,MIC Meropenem + inhibitor,[8]; [25],0.5 µg/mL
same,MIC,"[8]; substance alone, read-out: MIC",> 16 µg/mL
same,MIC,[9],> 16 µg/mL
same,MIC Aztreonam + inhibitor,[10]; [23],≤0.062 µg/mL
same,MIC Ceftazidime + inhibitor,[10]; [24],≤0.25 µg/mL
same,MIC Meropenem + inhibitor,[10]; [25],0.125 µg/mL
same,MIC,"[10]; substance alone, read-out: MIC",> 16 µg/mL
same,MIC Aztreonam + inhibitor,[11]; [23],≤0.062 µg/mL
same,MIC Ceftazidime + inhibitor,[11]; [24],≤0.25 µg/mL
same,MIC Aztreonam + inhibitor,[12]; [23],≤0.062 µg/mL
same,MIC Ceftazidime + inhibitor,[12]; [24],≤0.25 µg/mL
same,MIC Meropenem + inhibitor,[12]; [25],≤0.0312 µg/mL
same,MIC Aztreonam + inhibitor,"[13]; E. coli JMI 2671 (VIM-19 (Cpase)), Aztreonam + inhibitor at 4 µg/mL",≤0.062 µg/mL
same,MIC Ceftazidime + inhibitor,"[13]; E. coli JMI 2671 (VIM-19 (Cpase)), Ceftazidime + inhibitor at 4 µg/mL",0.5 µg/mL
same,MIC Meropenem + inhibitor,"[13]; E. coli JMI 2671 (VIM-19 (Cpase)), Meropenem + inhibitor at 4 µg/mL",1 µg/mL
same,MIC,"[13]; Escherichia coli, JMI2671, E. coli JMI 2671 (VIM-19 (Cpase)), substance alone",> 16 µg/mL
same,MIC Aztreonam + inhibitor,"[14]; E. coli JMI 2665 (CMY-2 (Plasmid Cpase)), Aztreonam + inhibitor at 4 µg/mL",≤0.062 µg/mL
same,MIC Ceftazidime + inhibitor,"[14]; E. coli JMI 2665 (CMY-2 (Plasmid Cpase)), Ceftazidime + inhibitor at 4 µg/mL",≤0.25 µg/mL
same,MIC,"[14]; Escherichia coli, JMI2665",4 µg/mL
same,MIC Aztreonam + inhibitor,[15]; [23],0.125 µg/mL
same,MIC Ceftazidime + inhibitor,[15]; [24],0.5 µg/mL
same,MIC Meropenem + inhibitor,[15]; [25],0.5 µg/mL
same,MIC Aztreonam + inhibitor,[16]; [23],≤0.062 µg/mL
same,MIC Ceftazidime + inhibitor,[16]; [24],≤0.25 µg/mL
same,MIC Meropenem + inhibitor,[16]; [25],0.062 µg/mL
same,MIC Aztreonam + inhibitor,[17]; [23],>4 µg/mL
same,MIC Ceftazidime + inhibitor,[17]; [24],>16 µg/mL
same,MIC Meropenem + inhibitor,[17]; [25],>2 µg/mL
same,MIC Aztreonam + inhibitor,[18]; [23],≤0.062 µg/mL
same,MIC Ceftazidime + inhibitor,[18]; [24],≤0.25 µg/mL
same,MIC Meropenem + inhibitor,[18]; [25],≤0.0312 µg/mL
same,MIC Aztreonam + inhibitor,[19]; [23],≤0.062 µg/mL
same,MIC Ceftazidime + inhibitor,[19]; [24],≤0.25 µg/mL
same,MIC Meropenem + inhibitor,[19]; [25],≤0.0312 µg/mL
same,MIC Aztreonam + inhibitor,[20]; [23],≤0.062 µg/mL
same,MIC Ceftazidime + inhibitor,[20]; [24],≤0.25 µg/mL
same,MIC,"[20]; Escherichia coli, JMI10768, substance alone",> 16 µg/mL
same,MIC,[21],4 µg/mL
same,MIC,[22],> 16 µg/mL
